The source of these data is ChEMBL document CHEMBL3045059, “Efficacy of ketoenols on insecticide resistant field populations of two-spotted spider mite Tetranychus urticae and sweet potato whitefly Bemisia tabaci from Greece” (2012).

What all share (format): functional
For test [1], the system named is Tetranychus urticae. In words: Acaricidal activity against adult Tetranychus urticae (two-spotted spider mite) greenhouse population TU7 in bean leaves assessed as mortality applied at 1 bar pressure measured after 48 hr. Particulars: TU7, 48 h.
Test [2] relates to Tetranychus urticae. In words: Acaricidal activity against adult Tetranychus urticae (two-spotted spider mite) greenhouse population TU11 in bean leaves assessed as mortality applied at 1 bar pressure measured after 48 hr. Particulars: TU11, 48 h.
The test system of test [3] is Tetranychus urticae. In words: Acaricidal activity against adult Tetranychus urticae (two-spotted spider mite) greenhouse population TU9 in bean leaves assessed as mortality applied at 1 bar pressure measured after 48 hr. Particulars: TU9, 48 h.
Test [4] has as its system Tetranychus urticae. In words: Acaricidal activity against adult Tetranychus urticae (two-spotted spider mite) field population TU4 in bean leaves assessed as mortality applied at 1 bar pressure measured after 48 hr. Particulars: TU4, 48 h.
Test [5] has as its system Tetranychus urticae. In words: Acaricidal activity against adult Tetranychus urticae (two-spotted spider mite) greenhouse population TU3 in bean leaves assessed as mortality applied at 1 bar pressure measured after 48 hr. Conditions: TU3, 48 h.
Test [6] concerns Tetranychus urticae. In words: Acaricidal activity against adult Tetranychus urticae (two-spotted spider mite) field population TU12 in bean leaves assessed as mortality applied at 1 bar pressure measured after 48 hr. Particulars: TU12, 48 h.
Test [7] concerns Tetranychus urticae. As to the kind of experiment: Acaricidal activity against adult Tetranychus urticae (two-spotted spider mite) greenhouse population TU5 in bean leaves assessed as mortality applied at 1 bar pressure measured after 48 hr. Conditions: TU5, 48 h.
For test [8], the system named is Tetranychus urticae. As to the kind of experiment: Acaricidal activity against adult Tetranychus urticae (two-spotted spider mite) field population TU2 in bean leaves assessed as mortality applied at 1 bar pressure measured after 48 hr. Particulars: TU2, 48 h.
In test [9] the test system is Tetranychus urticae. As to the kind of experiment: Acaricidal activity against adult Tetranychus urticae (two-spotted spider mite) field population TU6 in bean leaves assessed as mortality applied at 1 bar pressure measured after 48 hr. Conditions: TU6, 48 h.
Test [10] relates to Tetranychus urticae. In words: Acaricidal activity against adult Tetranychus urticae (two-spotted spider mite) greenhouse population TU1 in bean leaves assessed as mortality applied at 1 bar pressure measured after 48 hr. Particulars: TU1, 48 h.
Test [11] concerns Tetranychus urticae. As to the kind of experiment: Acaricidal activity against adult Tetranychus urticae (two-spotted spider mite) laboratory strain GSS in bean leaves assessed as mortality applied at 1 bar pressure measured after 48 hr.
Test [12] has as its system Tetranychus urticae. As to the kind of experiment: Acaricidal activity against adult Tetranychus urticae (two-spotted spider mite) laboratory strain SAMB in bean leaves assessed as mortality applied at 1 bar pressure measured after 48 hr.
Test [13] concerns Tetranychus urticae. In words: Resistance ratio, ratio of LC50 for adult Tetranychus urticae (two-spotted spider mite) greenhouse population TU7 to LC50 for adult Tetranychus urticae laboratory strain SAMB measured after 48 hr.
Test [14] relates to Tetranychus urticae. In words: Resistance ratio, ratio of LC50 for adult Tetranychus urticae (two-spotted spider mite) greenhouse population TU11 to LC50 for adult Tetranychus urticae laboratory strain SAMB measured after 48 hr.
For test [15], the system named is Tetranychus urticae. As to the kind of experiment: Resistance ratio, ratio of LC50 for adult Tetranychus urticae (two-spotted spider mite) greenhouse population TU9 to LC50 for adult Tetranychus urticae laboratory strain SAMB measured after 48 hr.
In test [16] the test system is Tetranychus urticae. In words: Resistance ratio, ratio of LC50 for adult Tetranychus urticae (two-spotted spider mite) field population TU4 to LC50 for adult Tetranychus urticae laboratory strain SAMB measured after 48 hr.
Test [17] deals with Tetranychus urticae. As to the kind of experiment: Resistance ratio, ratio of LC50 for adult Tetranychus urticae (two-spotted spider mite) greenhouse population TU3 to LC50 for adult Tetranychus urticae laboratory strain SAMB measured after 48 hr.
The subject of test [18] is Tetranychus urticae. In words: Resistance ratio, ratio of LC50 for adult Tetranychus urticae (two-spotted spider mite) field population TU12 to LC50 for adult Tetranychus urticae laboratory strain SAMB measured after 48 hr.
Test [19] concerns Tetranychus urticae. As to the kind of experiment: Resistance ratio, ratio of LC50 for adult Tetranychus urticae (two-spotted spider mite) greenhouse population TU5 to LC50 for adult Tetranychus urticae laboratory strain SAMB measured after 48 hr.
Test [20] has as its system Tetranychus urticae. As to the kind of experiment: Resistance ratio, ratio of LC50 for adult Tetranychus urticae (two-spotted spider mite) field population TU2 to LC50 for adult Tetranychus urticae laboratory strain SAMB measured after 48 hr.
The subject of test [21] is Tetranychus urticae. In words: Resistance ratio, ratio of LC50 for adult Tetranychus urticae (two-spotted spider mite) greenhouse population TU1 to LC50 for adult Tetranychus urticae laboratory strain SAMB measured after 48 hr.
Test [22] concerns Tetranychus urticae. As to the kind of experiment: Resistance ratio, ratio of LC50 for adult Tetranychus urticae (two-spotted spider mite) field population TU6 to LC50 for adult Tetranychus urticae laboratory strain SAMB measured after 48 hr.
The subject of test [23] is Tetranychus urticae. As to the kind of experiment: Resistance ratio, ratio of LC50 for adult Tetranychus urticae (two-spotted spider mite) laboratory strain GSS to LC50 for adult Tetranychus urticae laboratory strain SAMB measured after 48 hr.
For test [24], the system named is Tetranychus urticae. As to the kind of experiment: Acaricidal activity against adult Tetranychus urticae (two-spotted spider mite) field population TU6 in bean leaves assessed as mortality applied at 1 bar pressure measured after 24 hr. Particulars: TU6, 24 h.
In test [25] the test system is Tetranychus urticae. In words: Acaricidal activity against adult Tetranychus urticae (two-spotted spider mite) laboratory strain GSS in bean leaves assessed as mortality applied at 1 bar pressure measured after 24 hr.
Test [26] relates to Tetranychus urticae. In words: Acaricidal activity against adult Tetranychus urticae (two-spotted spider mite) laboratory strain SAMB in bean leaves assessed as mortality applied at 1 bar pressure measured after 24 hr.
Test [27] relates to Tetranychus urticae. As to the kind of experiment: Resistance ratio, ratio of LC50 for adult Tetranychus urticae (two-spotted spider mite) greenhouse population TU7 to LC50 for adult Tetranychus urticae laboratory strain SAMB measured after 24 hr.
For test [28], the system named is Tetranychus urticae. In words: Resistance ratio, ratio of LC50 for adult Tetranychus urticae (two-spotted spider mite) greenhouse population TU11 to LC50 for adult Tetranychus urticae laboratory strain SAMB measured after 24 hr.
Test [29] relates to Tetranychus urticae. In words: Resistance ratio, ratio of LC50 for adult Tetranychus urticae (two-spotted spider mite) greenhouse population TU9 to LC50 for adult Tetranychus urticae laboratory strain SAMB measured after 24 hr.
The subject of test [30] is Tetranychus urticae. In words: Resistance ratio, ratio of LC50 for adult Tetranychus urticae (two-spotted spider mite) field population TU4 to LC50 for adult Tetranychus urticae laboratory strain SAMB measured after 24 hr.
In test [31] the test system is Tetranychus urticae. In words: Resistance ratio, ratio of LC50 for adult Tetranychus urticae (two-spotted spider mite) greenhouse population TU3 to LC50 for adult Tetranychus urticae laboratory strain SAMB measured after 24 hr.
Test [32] deals with Tetranychus urticae. In words: Resistance ratio, ratio of LC50 for adult Tetranychus urticae (two-spotted spider mite) field population TU12 to LC50 for adult Tetranychus urticae laboratory strain SAMB measured after 24 hr.
The subject of test [33] is Tetranychus urticae. In words: Resistance ratio, ratio of LC50 for adult Tetranychus urticae (two-spotted spider mite) greenhouse population TU5 to LC50 for adult Tetranychus urticae laboratory strain SAMB measured after 24 hr.
Test [34] concerns Tetranychus urticae. As to the kind of experiment: Resistance ratio, ratio of LC50 for adult Tetranychus urticae (two-spotted spider mite) field population TU2 to LC50 for adult Tetranychus urticae laboratory strain SAMB measured after 24 hr.
In test [35] the test system is Tetranychus urticae. As to the kind of experiment: Resistance ratio, ratio of LC50 for adult Tetranychus urticae (two-spotted spider mite) greenhouse population TU1 to LC50 for adult Tetranychus urticae laboratory strain SAMB measured after 24 hr.
Test [36] has as its system Tetranychus urticae. As to the kind of experiment: Resistance ratio, ratio of LC50 for adult Tetranychus urticae (two-spotted spider mite) field population TU6 to LC50 for adult Tetranychus urticae laboratory strain SAMB measured after 24 hr.
The test system of test [37] is Tetranychus urticae. As to the kind of experiment: Resistance ratio, ratio of LC50 for adult Tetranychus urticae (two-spotted spider mite) laboratory strain GSS to LC50 for adult Tetranychus urticae laboratory strain SAMB measured after 24 hr.
Test [38] concerns Tetranychus urticae. In words: Acaricidal activity against adult Tetranychus urticae (two-spotted spider mite) greenhouse population TU7 in bean leaves assessed as mortality applied at 1 bar pressure measured after 24 hr. Conditions: TU7, 24 h.
The test system of test [39] is Tetranychus urticae. In words: Acaricidal activity against adult Tetranychus urticae (two-spotted spider mite) greenhouse population TU11 in bean leaves assessed as mortality applied at 1 bar pressure measured after 24 hr. Particulars: TU11, 24 h.
Test [40] relates to Tetranychus urticae. In words: Acaricidal activity against adult Tetranychus urticae (two-spotted spider mite) greenhouse population TU9 in bean leaves assessed as mortality applied at 1 bar pressure measured after 24 hr. Particulars: TU9, 24 h.
Test [41] relates to Tetranychus urticae. In words: Acaricidal activity against adult Tetranychus urticae (two-spotted spider mite) field population TU4 in bean leaves assessed as mortality applied at 1 bar pressure measured after 24 hr. Particulars: TU4, 24 h.
For test [42], the system named is Tetranychus urticae. As to the kind of experiment: Acaricidal activity against adult Tetranychus urticae (two-spotted spider mite) greenhouse population TU3 in bean leaves assessed as mortality applied at 1 bar pressure measured after 24 hr. Particulars: TU3, 24 h.
For test [43], the system named is Tetranychus urticae. In words: Acaricidal activity against adult Tetranychus urticae (two-spotted spider mite) field population TU12 in bean leaves assessed as mortality applied at 1 bar pressure measured after 24 hr. Particulars: TU12, 24 h.
Test [44] deals with Tetranychus urticae. In words: Acaricidal activity against adult Tetranychus urticae (two-spotted spider mite) greenhouse population TU5 in bean leaves assessed as mortality applied at 1 bar pressure measured after 24 hr. Conditions: TU5, 24 h.
The subject of test [45] is Tetranychus urticae. In words: Acaricidal activity against adult Tetranychus urticae (two-spotted spider mite) field population TU2 in bean leaves assessed as mortality applied at 1 bar pressure measured after 24 hr. Particulars: TU2, 24 h.
The subject of test [46] is Tetranychus urticae. As to the kind of experiment: Acaricidal activity against adult Tetranychus urticae (two-spotted spider mite) greenhouse population TU1 in bean leaves assessed as mortality applied at 1 bar pressure measured after 24 hr. Particulars: TU1, 24 h.

≈ marks a conversion by molar mass, not a printed value.

`Cc1c(COC(=O)[C@@H]2[C@H](/C=C(\Cl)C(F)(F)F)C2(C)C)cccc1-c1ccccc1` (relative stereo) [BIFENTHRIN]: the LC50 (usually the concentration lethal to half of the exposed cells or organisms) in test [1] was 75100 µg/mL (≈ 178000 µM); in test [2], 168 µg/mL (≈ 397 µM); in [3], 112 µg/mL (≈ 265 µM); in test [4] it was 3140 µg/mL (≈ 7420 µM); in test [5] it was 741 µg/mL (≈ 1750 µM); in test [6], 85 µg/mL (≈ 201 µM). Further, the LC50 in test [7] is 45 µg/mL (≈ 106 µM); in [8], 42 µg/mL (≈ 99.3 µM); in test [9], 8.5 µg/mL (≈ 20.1 µM); in [10], 115 µg/mL (≈ 272 µM); in test [11], 13 µg/mL (≈ 30.7 µM); in [12] it was 8.9 µg/mL (≈ 21 µM). In addition, the RatioLC50 in [13] is 8413; in [14], 19; in test [15], 12; in [16], 351; in [17], 83; in test [18] it was 9.5. The RatioLC50 in test [19] came out at 5; in test [20], 4.7; in [21], 13; in test [22], 0.9; in [23], 1.5.
In the case of `CC(C)(C)c1ccc(CSc2cnn(C(C)(C)C)c(=O)c2Cl)cc1` [PYRIDABEN], the LC50 in [24] came out at 16 µg/mL (≈ 43.8 µM); in test [25], 4.4 µg/mL (≈ 12.1 µM); in test [26], 6.4 µg/mL (≈ 17.5 µM); in test [38], 221 µg/mL (≈ 606 µM); in test [39] it was 248 µg/mL (≈ 680 µM); in [40], 166 µg/mL (≈ 455 µM). The median lethal concentration (LC50) turned out to be 26 µg/mL (≈ 71.2 µM) in test [41]; 117 µg/mL (≈ 321 µM) in test [42]; 62 µg/mL (≈ 170 µM) in test [43]; 38 µg/mL (≈ 104 µM) in test [44]; 71 µg/mL (≈ 195 µM) in [45]; 29 µg/mL (≈ 79.5 µM) in test [46]. Also, the RatioLC50 in [27] was 34; in test [28], 39; in test [29] it was 26; in test [30], 4; in test [31], 18; in [32], 9.8. Besides, the RatioLC50 in test [33] was determined as 5.9; in test [34] it was 11; in test [35] it was 4.5; in [36], 2.6; in test [37], 0.7.
